Measurements: PMC4431182 (2015)

Assays:
Experiment in all cases: electrochemical aptamer-based sensor, square wave voltammetry
[1] = test system: 3-UAC (RNA, aptamer) CUUGGUUUAGGUAAUGAGUAC; settings: Na+ 100 mM, Mg2+ 5 mM; 20 mM Tris, pH 7.4; surface-immobilised aptamer; apparent
[2] = test system: 16GU (RNA, aptamer) CUUGGUUUAGGUAAUUAG; settings: Na+ 100 mM, Mg2+ 5 mM; 20 mM Tris, pH 7.4; surface-immobilised aptamer; apparent
[3] = test system: 7UG (RNA, aptamer) CUUGGUGUAGGUAAUGAG; settings: Na+ 100 mM, Mg2+ 5 mM; 20 mM Tris, pH 7.4; surface-immobilised aptamer; no quantitative binding, -9% signal change at 30 µM tobramycin
[4] = test system: High-Gain Parent (RNA, aptamer) CUUGGUUUAGGUAAUGAG; settings: Na+ 100 mM, Mg2+ 5 mM; 20 mM Tris, pH 7.4; surface-immobilised aptamer; apparent
[5] = test system: 7UC (RNA, aptamer) CUUGGUCUAGGUAAUGAG; settings: Na+ 100 mM, Mg2+ 5 mM; 20 mM Tris, pH 7.4; surface-immobilised aptamer; no quantitative binding, 3% signal change at 30 µM tobramycin

Kd [1]: 0.17 ± 0.03 µM
Kd [2]: 3.0 ± 0.4 µM
binding [3]: no
KD [4]: 0.08 ± 0.01 µM
binding [5]: no
SMILES: NC[C@H]1O[C@H](O[C@H]2[C@H](O)[C@@H](O[C@H]3O[C@H](CO)[C@@H](O)[C@H](N)[C@H]3O)[C@H](N)C[C@@H]2N)[C@H](N)C[C@@H]1O
